Data set [1] in a line: Neurotoxicity in Wistar rat neuronal cells assessed as induction of mortality at 10 uM. The class given is toxicity, cell-based.
Data set [2] can be described thus: Neurotoxicity in Wistar rat neuronal cells assessed as induction of mortality at 100 uM. The class given is toxicity, cell-based.
Data set [3] can be described thus: Binding affinity to immobilized amyloid beta 25-35 by Surface plasmon resonance. (In general: SPR reads the build-up and loss of mass on a sensor chip optically.)
Data set [4] is described as follows: Protective effect against beta amyloid oligomers induced toxicity in Wistar rat neuronal cells at 100 uM. The class given is functional.

Where a SMILES comes first, the peptide text is derived from it. [ ]: non-standard residue; d: D form. αMeP = C[C@@]1(C(=O)O)CCCN1; Aze = O=C(O)[C@@H]1CCN1; Aib = CC(C)(N)C(=O)O

What is called Kd is the concentration at which binding is half-saturated. The low end stands for higher affinity, the high end for lower affinity.

Consider `CC[C@H](C)[C@H](N)C(=O)N[C@H](C(=O)NCC(=O)N[C@@H](CC(C)C)C(=O)N[C@@H](CCSC)C(N)=O)[C@@H](C)CC` (H-IIGLM-NH2), for which the Activity in data set [1] and in data set [2] was 10% in each case. On to `CC[C@H](C)[C@H](N)C(=O)N[C@H](C(=O)NCC(=O)N[C@@H](CC(C)C)C(=O)N[C@@H](CCSC)C(=O)O)[C@@H](C)CC` (H-IIGLM-OH), for which, in data set [1], the Activity was found to be 21%. Turning to `CC[C@H](C)[C@H](N)C(=O)N[C@H](C(=O)N1CCC[C@H]1C(=O)N[C@@H](CC(C)C)C(=O)N[C@@H](CCSC)C(N)=O)[C@@H](C)CC` (H-IIPLM-NH2), the equilibrium dissociation constant (Kd) in data set [3] is 4490 µM. In turn, `CC[C@H](C)[C@H](N)C(=O)N[C@H](C(=O)NC(C)(C)C(=O)N[C@@H](CC(C)C)C(=O)N[C@@H](CCSC)C(N)=O)[C@@H](C)CC` (H-II[Aib]LM-NH2) displayed an Activity in data set [4] of 24%. Further, the Kd in data set [3] was 2560 µM. Molecule `CC[C@H](C)[C@H](N)C(=O)N[C@H](C(=O)N1CC[C@H]1C(=O)N[C@@H](CC(C)C)C(=O)N[C@@H](CCSC)C(N)=O)[C@@H](C)CC` (H-II[Aze]LM-NH2) had a Kd in data set [3] of 4600 µM. Still for that read-out and setting: for `CC[C@H](C)[C@H](N)C(=O)N[C@H](C(=O)N1CCC[C@@]1(C)C(=O)N[C@@H](CC(C)C)C(=O)N[C@@H](CCSC)C(N)=O)[C@@H](C)CC` (H-II[αMeP]LM-NH2) the value was 1530 µM; for `Nc1c(/N=N/c2ccc(-c3ccc(/N=N/c4cc(S(=O)(=O)O)c5ccccc5c4N)cc3)cc2)cc(S(=O)(=O)O)c2ccccc12` [CONGO RED], 13 µM.

For the origin of these results see ChEMBL document CHEMBL1143115, “Synthesis and biological properties of beta-turned Abeta(31-35) constrained analogues” (Bioorg Med Chem Lett, 2008).
